Results taken from patent publication US8658791B2, “2-substituted-6-amino-5-alkyl, alkenyl or alkynyl-4-pyrimidinecarboxylic acids and 6-substituted-4-amino-3-alkyl, alkenyl or alkynyl picolinic acids and their use as herbicides” (Dow AgroSciences, LLC, priority 2007, dated 2014).

Tests used:
[1] = system: lambsquarter (Chenopodium album); test: General postemergence herbicidal activity, CHEAL; format: in vivo; conditions: Chenopodium album, post-emergence, 336 h, postemergence spray, visual score after 14 days, 0 = no injury, 100 = complete kill, read-out: Post-emergent Weed Control CHEAL; for pest or weed control at 140 g/ha: 140 g ai/ha; for pest or weed control at 280 g/ha: 280 g ai/ha
Procedure, shortened: (§1)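 Greenhouse plants at first or second true leaf stage sprayed postemergence at 187 L/ha with compound in acetone/DMSO/water mixture with crop oil concentrate and surfactant. Rates ran from a high rate through 1/2X to 1/16X. Visual injury versus untreated plants scored 0–100% after 14 days.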

[2] = system: velvetleaf (Abutilon theophrasti); test: General postemergence herbicidal activity, ABUTH; format: in vivo; conditions: Abutilon theophrasti, post-emergence, 336 h, postemergence spray, visual score after 14 days, 0 = no injury, 100 = complete kill, read-out: Post-emergent Weed Control ABUTH; for pest or weed control at 140 g/ha: 140 g ai/ha; for pest or weed control at 280 g/ha: 280 g ai/ha
Procedure, shortened: as §1

[3] = system: wild poinsettia (Euphorbia heterophylla); test: General postemergence herbicidal activity, EPHHL; format: in vivo; conditions: Euphorbia heterophylla, post-emergence, 336 h, postemergence spray, visual score after 14 days, 0 = no injury, 100 = complete kill, read-out: Post-emergent Weed Control EPHHL; for pest or weed control at 140 g/ha: 140 g ai/ha; for pest or weed control at 280 g/ha: 280 g ai/ha
Procedure, shortened: as §1

[4] = system: barnyardgrass (Echinochloa crus-galli); test: General postemergence herbicidal activity, ECHCG; format: in vivo; conditions: Echinochloa crus-galli, post-emergence, 336 h, postemergence spray, visual score after 14 days, 0 = no injury, 100 = complete kill, read-out: Post-emergent Weed Control ECHCG; for pest or weed control at 140 g/ha: 140 g ai/ha; for pest or weed control at 280 g/ha: 280 g ai/ha
Procedure, shortened: as §1

rice (Oryza sativa) [5] = test: General postemergence herbicidal activity, ORYSA; format: in vivo; conditions: Oryza sativa, post-emergence, 336 h, postemergence spray, visual score after 14 days, 0 = no injury, 100 = complete kill, read-out: Post-emergent Weed Control ORYSA; for plant injury at 140 g/ha: 140 g ai/ha; for plant injury at 280 g/ha: 280 g ai/ha
Procedure, shortened: as §1

[6] = system: lambsquarter (Chenopodium album); test: General preemergence herbicidal activity, CHEAL; format: in vivo; conditions: applied to soil surface, visual score after 20-22 days, 0 = no injury, 100 = complete kill or no emergence, read-out: Pre-emergent Weed Control CHEAL; for pest or weed control at 140 g/ha: 140 g ai/ha
Text: (§2) Seeds of the desired test plant species were planted in a soil matrix prepared by mixing a loam soil (43 percent silt, 19 percent clay, and 38 percent sand, with a pH of about 8.1 and an organic matter content of about 1.5 percent) and sand in a 70 to 30 ratio. The soil matrix was contained in plastic pots with a surface area of 127 square centimeters. When required to ensure good germination and healthy plants, a fungicide treatment and/or other chemical or physical treatment was applied. A weighed amount, determined by the highest rate to be tested, of each test compound was placed in a 25 mL glass vial and was dissolved in 6 mL of a 97:3 v/v (volume/volume) mixture of acetone and DMSO to obtain concentrated stock solutions. […] The stock solutions obtained were diluted with 18 mL of a 0.1% v/v aqueous solution of Tween® 20 surfactant to obtain spray solutions containing the highest application rate. Additional application rates were obtained by serial dilution of 12 mL of the high rate solution into a solution containing 3 mL of 97:3 v/v mixture of acetone and DMSO and 9 mL of the 0.1% v/v aqueous solution of Tween® 20 surfactant to obtain 1/2X, 1/4X, 1/8X and 1/16X rates of the high rate. Compound requirements are based upon a 12 mL application volume at a rate of 187 L/ha. Formulated compounds were applied to the soil surface with an overhead Mandel track sprayer equipped with a […] nozzles calibrated to deliver 187 L/ha over an application area of 0.503 square meters at a spray height of 18 inches (43 cm) above the soil surface. Control pots were sprayed in the same manner with the solvent blank. The treated pots and control pots were placed in a greenhouse maintained with an approximate 15 hour photoperiod and temperatures of about 23-29° C. during the day and 22-28° C. during the night. Nutrients and water were added on a regular basis and supplemental lighting was provided with overhead metal halide 1000-Watt lamps as necessary. The water was added by top-irrigation. After 20-22 days, the condition of the test plants that germinated and grew as compared with that of the untreated plants that emerged and grew was determined visually and scored on a scale of 0 to 100 percent where 0 corresponds to no injury and 100 corresponds to complete kill or no emergence.

[7] = system: velvetleaf (Abutilon theophrasti); test: General preemergence herbicidal activity, ABUTH; format: in vivo; conditions: applied to soil surface, visual score after 20-22 days, 0 = no injury, 100 = complete kill or no emergence, read-out: Pre-emergent Weed Control ABUTH; for pest or weed control at 140 g/ha: 140 g ai/ha
Text: as §2

[8] = system: wild poinsettia (Euphorbia heterophylla); test: General preemergence herbicidal activity, EPHHL; format: in vivo; conditions: applied to soil surface, visual score after 20-22 days, 0 = no injury, 100 = complete kill or no emergence, read-out: Pre-emergent Weed Control EPHHL; for pest or weed control at 140 g/ha: 140 g ai/ha
Text: as §2

[9] = system: barnyardgrass (Echinochloa crus-galli); test: General preemergence herbicidal activity, ECHCG; format: in vivo; conditions: applied to soil surface, visual score after 20-22 days, 0 = no injury, 100 = complete kill or no emergence, read-out: Pre-emergent Weed Control ECHCG; for pest or weed control at 140 g/ha: 140 g ai/ha
Text: as §2

rice (Oryza sativa) [10] = test: General preemergence herbicidal activity, ORYSA; format: in vivo; conditions: applied to soil surface, visual score after 20-22 days, 0 = no injury, 100 = complete kill or no emergence, read-out: Pre-emergent Weed Control ORYSA; for plant injury at 140 g/ha: 140 g ai/ha
Text: as §2

SMILES | melting point | pest or weed control at 140 g/ha [1] | pest or weed control at 140 g/ha [2] | pest or weed control at 140 g/ha [3] | pest or weed control at 140 g/ha [4] | plant injury at 140 g/ha (rice (Oryza sativa) [5]) | pest or weed control at 140 g/ha [6] | pest or weed control at 140 g/ha [7] | pest or weed control at 140 g/ha [8] | pest or weed control at 140 g/ha [9] | plant injury at 140 g/ha (rice (Oryza sativa) [10]) | pest or weed control at 280 g/ha [1] | pest or weed control at 280 g/ha [2] | pest or weed control at 280 g/ha [3] | pest or weed control at 280 g/ha [4] | plant injury at 280 g/ha (rice (Oryza sativa) [5]) | other results
C=Cc1c(N)nc(-c2ccc(Cl)cc2F)nc1C(=O)OC [Compound 5, 6-Amino-2-(4-chloro-2-fluorophenyl)-5-vinylpyrimidine-4-carboxylic acid methyl ester] | 137 to 139 °C | 100% | 100% | 100% | 80% | 5% | 95% | 100% | 90% | 0% | 10% |  |  |  |  |  | 
C=Cc1c(N)nc(C2CC2)nc1C(=O)OCC [Compound 4, 6-Amino-2-cyclopropyl-5-vinylpyrimidine-4-carboxylic acid ethyl ester] | 155 to 157 °C | 100% | 100% | 100% | 0% | 0% |  |  |  |  |  |  |  |  |  |  | pest or weed control at 280 g/ha ([6]; 280 g ai/ha): 100%; pest or weed control at 280 g/ha ([7]; 280 g ai/ha): 90%; pest or weed control at 280 g/ha ([8]; 280 g ai/ha): 100%; pest or weed control at 280 g/ha ([9]; 280 g ai/ha): 50%; plant injury at 280 g/ha (rice (Oryza sativa) [10]; 280 g ai/ha): 0%
CCOC(=O)c1nc(C2CC2)nc(N)c1C [Compound 1, 6-Amino-2-cyclopropyl-5-methylpyrimidine-4-carboxylic acid ethyl ester] |  |  |  |  |  |  | 100% | 80% | 100% | 80% | 30% | 80% | 15% | 100% | 0% | 0% | 
COC(=O)c1nc(-c2ccc(Cl)c(OC)c2F)nc(N)c1C [Compound 2, 6-Amino-2-(4-chloro-2-fluoro-3-methoxyphenyl)-5-methylpyrimidine-4-carboxylic acid methyl ester] | 168 to 170 °C |  |  |  |  |  | 80% | 40% | 95% | 0% | 15% | 100% | 95% | 100% | 95% | 0% | 

More lines, main results first:

melting point | SMILES | pest or weed control at 140 g/ha [1] | pest or weed control at 140 g/ha [2] | pest or weed control at 140 g/ha [3] | pest or weed control at 140 g/ha [4] | plant injury at 140 g/ha (rice (Oryza sativa) [5]) | pest or weed control at 140 g/ha [6] | pest or weed control at 140 g/ha [7] | pest or weed control at 140 g/ha [8] | pest or weed control at 140 g/ha [9] | plant injury at 140 g/ha (rice (Oryza sativa) [10]) | pest or weed control at 280 g/ha [1] | pest or weed control at 280 g/ha [2] | pest or weed control at 280 g/ha [3] | pest or weed control at 280 g/ha [4] | plant injury at 280 g/ha (rice (Oryza sativa) [5]) | other results
167 to 169 °C | C=Cc1c(N)nc(-c2ccc(Cl)cc2F)nc1C(=O)O [Compound 42, 6-Amino-2-(4-chloro-2-fluorophenyl)-5-vinylpyrimidine-4-carboxylic acid] |  |  |  |  |  | 100% | 100% | 100% | 30% | 10% |  |  |  |  |  | 
144 to 147 °C | C=Cc1c(N)nc(-c2ccc(Cl)c(C(C)F)c2F)nc1C(=O)OC (stereo not shown) [Compound 14, 6-amino-2-(4-chloro-2-fluoro-3-(1-fluoroethyl)phenyl)-5-vinylpyrimidine-4-carboxylic acid methyl ester] |  |  |  |  |  | 100% | 100% | 100% | 95% | 95% |  |  |  |  |  | pest or weed control at 70 g/ha ([1]; 70 g ai/ha): 100%; pest or weed control at 70 g/ha ([2]; 70 g ai/ha): 100%; pest or weed control at 70 g/ha ([3]; 70 g ai/ha): 100%; pest or weed control at 70 g/ha ([4]; 70 g ai/ha): 100%; plant injury at 70 g/ha (rice (Oryza sativa) [5]; 70 g ai/ha): 10%
201 to 203 °C | COc1c(Cl)ccc(-c2nc(N)c(C)c(C(=O)O)n2)c1F [Compound 53, 6-amino-2-(4-chloro-2-fluoro-3-methoxyphenyl)-5-methylpyrimidine-4-carboxylic acid] | 100% | 90% | 100% | 90% | 0% | 100% | 100% | 100% | 80% | 0% |  |  |  |  |  | 
118 to 121 °C | C=Cc1c(N)cc(-c2ccc(Cl)c(OC)c2F)nc1C(=O)OC [Compound 28, 4-Amino-6-(4-chloro-2-fluoro-3-methoxyphenyl)-3-vinylpyridine-2-carboxylic acid methyl ester] |  |  |  |  |  | 95% | 95% | 100% | 70% | 20% | 75% | 85% | 90% | 75% | 0% | 
